Numbers after ± are expanded uncertainties.
Details: Gas

[C-]#[O+] [carbon monoxide]
Details | viscosity [mPa·s]
288.72 K, Mass density=0.52 kg/m3 | 0.01732 ± 0.00012
288.91 K, Mass density=0.78 kg/m3 | 0.01733 ± 0.00012
292.39 K, Mass density=0.52 kg/m3 | 0.0175 ± 0.00012
296.53 K, Mass density=0.78 kg/m3 | 0.0177 ± 0.00013
296.67 K, Mass density=0.78 kg/m3 | 0.0177 ± 0.00013
296.74 K, Mass density=0.52 kg/m3 | 0.01769 ± 0.00013
296.81 K, Mass density=0.52 kg/m3 | 0.0177 ± 0.00013
297.19 K, Mass density=0.52 kg/m3 | 0.01771 ± 0.00013
298.54 K, Mass density=0.52 kg/m3 | 0.01778 ± 0.00013
298.58 K, Mass density=0.52 kg/m3 | 0.01778 ± 0.00013
299.09 K, Mass density=0.52 kg/m3 | 0.0178 ± 0.00013
299.27 K, Mass density=0.52 kg/m3 | 0.01781 ± 0.00013
323.27 K, Mass density=0.78 kg/m3 | 0.0189 ± 0.00013
323.95 K, Mass density=0.52 kg/m3 | 0.01894 ± 0.00013
349.98 K, Mass density=0.78 kg/m3 | 0.02007 ± 0.00014
350.09 K, Mass density=0.52 kg/m3 | 0.02007 ± 0.00014
377.57 K, Mass density=0.78 kg/m3 | 0.02123 ± 0.00015
377.81 K, Mass density=0.52 kg/m3 | 0.02123 ± 0.00015
405.3 K, Mass density=0.78 kg/m3 | 0.02235 ± 0.00015
405.55 K, Mass density=0.52 kg/m3 | 0.02236 ± 0.00015
433.29 K, Mass density=0.78 kg/m3 | 0.02345 ± 0.00016
433.45 K, Mass density=0.52 kg/m3 | 0.02345 ± 0.00016
461.39 K, Mass density=0.78 kg/m3 | 0.02452 ± 0.00016
461.45 K, Mass density=0.52 kg/m3 | 0.02451 ± 0.00016
489.68 K, Mass density=0.78 kg/m3 | 0.02558 ± 0.00017
489.81 K, Mass density=0.52 kg/m3 | 0.02557 ± 0.00017
518.13 K, Mass density=0.78 kg/m3 | 0.02659 ± 0.00018
518.44 K, Mass density=0.52 kg/m3 | 0.0266 ± 0.00018
542.05 K, Mass density=0.52 kg/m3 | 0.02744 ± 0.00018
542.09 K, Mass density=0.78 kg/m3 | 0.02744 ± 0.00018
564.73 K, Mass density=0.78 kg/m3 | 0.02822 ± 0.00019
593.37 K, Mass density=0.52 kg/m3 | 0.02919 ± 0.00019
593.52 K, Mass density=0.78 kg/m3 | 0.0292 ± 0.00019
622.5 K, Mass density=0.52 kg/m3 | 0.03015 ± 0.0002
622.67 K, Mass density=0.78 kg/m3 | 0.03016 ± 0.0002
651.51 K, Mass density=0.78 kg/m3 | 0.0311 ± 0.0002
651.68 K, Mass density=0.52 kg/m3 | 0.0311 ± 0.0002
680.94 K, Mass density=0.78 kg/m3 | 0.03203 ± 0.00021
681.07 K, Mass density=0.52 kg/m3 | 0.03203 ± 0.00021

N#N [nitrogen]
Mass density=0.72 kg/m3
Details | viscosity [mPa·s]
291.55 K | 0.01747 ± 0.00012
294.73 K | 0.01762 ± 0.00013
296.88 K | 0.01771 ± 0.00013
324 K | 0.01894 ± 0.00013
350.42 K | 0.02009 ± 0.00014
378.04 K | 0.02125 ± 0.00015
405.75 K | 0.02237 ± 0.00015
433.79 K | 0.02347 ± 0.00016
461.81 K | 0.02453 ± 0.00016
490.21 K | 0.02559 ± 0.00017
518.59 K | 0.02661 ± 0.00018
542.47 K | 0.02747 ± 0.00018
565.16 K | 0.02825 ± 0.00019
594.04 K | 0.02922 ± 0.00019
623.22 K | 0.0302 ± 0.0002
652.36 K | 0.03114 ± 0.0002
681.99 K | 0.03209 ± 0.00021

From the NIST ThermoML archive (doi:10.1007/s10765-012-1185-1)
